Reference: patent publication US20240335395A1, “COMPOSITIONS AND METHODS FOR PREVENTING AND/OR TREATING DISEASE ASSOCIATED WITH IL-23 EXPRESSION” (ALLSPIM, priority 2021, published 2024)

Columns and labels:
IL-23 = IL-23 production (ELISA) in LPS-stimulated THP-1 cells, 2,4-D versus other chalcones, Example 2; format: cell-based, human; settings: LPS-stimulated THP-1
Text: Molecules tested. Natural 2,4-D, isolated and purified from Chloranthus spicatus (purity HPLC≥98%, Cat. No.: 129742-43-2), was purchased from BOC Science (Shirley, NY). Synthetic 2,4-D (purity HPLC≥98%) was obtained from YIWEI Biotech (Shanghai, China). 2′-hydroxychalcone (2′-HC, purity HPLC≥98%, Cat. No.: 42224-53-3), 4-hydroxychlcone (4-HC, purity HPLC≥98%, Cat. No.: 20426-12-4), 2′,2-dihydroxychalcone (2′,2-DHC, purity HPLC≥98%, Cat. No.: IDF00045_ALDRICH), 2′,3-dihydroxychalcone (2′,3-DHC, purity HPLC≥98%, Cat No.: IDF00047_ALDRICH), 2′,4-dihydroxychalcone (2′,4-DHC, purity HPLC≥98%, Cat. No.: PH011685_ALDRICH), 2′,5′-dihydroxychalcone (2′,5′-DHC, purity HPLC≥98%, No.: IDF00046-1G), and 2′,4′,4-trihydroxychalcone (2′,4′4-THC, purity HPLC≥98%, No.: 38986_SIAL) were purchased from Sigma. 2′,4′-dihydroxychalcone (2′,4′-DHC, purity HPLC≥98%, Cat. No. AB151736) was purchased from abcr GmbH (Karlsruhe, Germany). Isobavachalcone (IBC), 4′-hydroxy-2′6′-dimethoxychalcone (HMC), 2-trifluoromethyl-2′-methoxychalcone (TFM) and Hydroxysafflor yellow A (HYA) were also tested.
Cell culture. THP-1 cells were cultured in RPMI 1640 culture medium (Gibco) supplemented with 10% fetal bovine serum (FBS; Gibco, UK.), 0.05 mM 2-mercaptoethanol, and 1% penicillin/streptomycin. Cells were used in exponential growth phase, with culture medium being replaced with fresh medium 1 day prior to the experiment. The following day, THP-1 cells were plated into 24-well culture plates with a cell density about 800,000 cells/mL and 2 mL per well. 10 ng/mL LPS was used to stimulate the THP-1 cells. RPMI 1640 medium containing 10% FBS and 1% P/S was used as a normal control (NC). 10 mM stock solutions of compounds in DMSO were diluted to 20 μM with complete culture medium just before use. Experiments were performed in quadruplicate.
Enzyme linked immune-sorbent assay (ELISA). At 24 hours, after centrifugation at 300 g for 10 min., 0.5 mL of supernatant was collected and stored at −80° C. until use. IL-23 levels were determined in culture supernatants as described in Example 1.

[1] = test system: laser-induced choroidal neovascularization (CNV); assay: Laser-induced CNV in rats, fluorescein angiography leakage grading; format: in vivo, rat; settings: 14 days, intravitreous injection
Experimental: Animals. All experiments were performed in accordance with the European Communities Council Directive 86/609/EEC and approved by local ethical committees (#2541-2015110210279792 v3). Six- to eight-week-old male Long Evans rats from the Janvier Breeding Center (Le Genest-Saint-Isle, France) were used to create a rat model of choroidal neovascularization (CNV) used as a model of human wet macular degeneration.
Laser-induced CNV. After anesthesia and dilation of the pupils, coverslips were positioned on the cornea as a contact glass. For rats, six or eight burns were performed 2 to 3 optic disc diameters away from the optic nerve with an Argon laser (532 nm) mounted on a slit lamp (175 mW, 0.1 s and 50 μm). Both eyes of animals received laser induction. The presence of a bubble witnessed the rupture of Bruch's membrane and confirmed a successful laser impact.
Treatments. After laser photocoagulation, rats were divided into 3 treatment groups: —Intravitreous injection (IVT) of 2,4-D (identified as “new treatment”, New T), —IVT of vehicle (PBS), —IVT of triamcinolone acetonide (Kenacort® 40 mg/ml; TA) (n=12 rats per group). The IVT consisted of 5 μl injected with a 31G needle mounted on a micro-thin (100 μl) syringe posterior to the limbus, avoiding the lens. IVT was performed immediately after laser had been performed. Animals were sacrificed at 7 days (n=6 per group- and at 16 days (n=6 per group).
Fluorescein angiography (FA). FA was performed 14 days after laser induction. […] Early and late phase angiograms were recorded 1-3 and 5-7 min respectively after fluorescein injection. […] Angiographic scores were established by 2 blinded observers according to the following criteria: grade 0, no hyper-fluorescence; grade 1, slight hyper-fluorescence with no increase in intensity nor in size; grade 2, hyper-fluorescence increasing in intensity but not in size; grade 3, hyper-fluorescence increasing both in intensity and size; grade 4, hyper-fluorescence size increase more than 2-diameter of the initial laser burn.

COc1cc(O)c(OC)c(O)c1C(=O)/C=C/c1ccccc1 [2,4-D, 2′,4′-dihydroxy-3′,6′-dimethoxychalcone]
inhibition of IL-23, superiority over remaining compounds (IL-23): 7,5- to 18 fold
percentage of impact graded 0-1 [1]: 68%
percentage of impact in grade 3-4 (intense leakage) [1]: 13%
grading score of impacts compared to vehicle ([1]; Dunn's multiple comparison): significantly reduced
